What all share (assay type): functional, cell-based
The test system of assay [1] is MCF7. Kind of assay: Cytotoxicity against human MCF7 cells assessed as reduction in cell viability incubated for 48 hrs by MTT assay. The following applies: MCF7, 48 h. For orientation: Tetrazolium assays rely on reduction of a dye to a coloured formazan, in cell work by metabolically active cells.
Assay [2] relates to HT-29. Kind of assay: Cytotoxicity against human HT-29 cells assessed as reduction in cell viability incubated for 48 hrs by MTT assay. The following applies: HT-29, 48 h.
For assay [3], the system named is HepG2. In words: Cytotoxicity against human HepG2 cells assessed as reduction in cell viability incubated for 48 hrs by MTT assay. The following applies: HepG2, 48 h.
The subject of assay [4] is HeLa. In words: Cytotoxicity against human HeLa cells assessed as reduction in cell viability after 72 hrs by MTT assay.

Structures are written as SMILES.

The term IC50 denotes the midpoint of a concentration-inhibition curve. On to `Cc1nccc2c1[nH]c1cc(OCc3cn(-c4cc(=O)oc5ccccc45)nn3)ccc12`, for which, in assay [1], the half-maximal inhibitory concentration (IC50) came out at 6.9 µM.

As for `O=c1oc2ccccc2c(O)c1Sc1nnc(-c2ccc(Cl)cc2)o1`, the IC50 in assay [2] is 18.6 µM; in assay [3], 3.46 µM. Regarding `CC(=O)O[C@@H]1[C@H](OC(C)=O)[C@H](OC(C)=O)CO[C@H]1n1cc(COC(=O)[C@]2(C)CCC[C@@]3(C)[C@@H]4CC[C@@]5(C)C[C@]4(CC[C@@H]32)CC5=O)nn1`, the half-maximal inhibitory concentration (IC50) in assay [4] was determined as 1.7 µM.

(Values after ChEMBL document CHEMBL5608172, “Structural modification strategies of triazoles in anticancer drug development” (Eur J Med Chem, 2024).)
